In this test the test system is Streptococcus pyogenes UMAA2166 viability, BacTiter-Glo luminescence, 6 h. In words: GAS bacterial viability reduction – luminescence, BacTiter-Glo, strain UMAA2166, counter-screen for streptokinase expression inhibitor project, dose response (AID 2477). (In general: A counterscreen serves to expose hits that act by an unwanted route or on another target.)

Results on twelve compounds are retold here after PubChem BioAssay AID2477 (Broad Institute, 2010).

pEC50: −log10 of the molar value. “And” between values parts separate entries of the source, which are not always exact repeats. Identical values can stand only once. Some results are limits rather than exact numbers.

What is called pEC50 is −log10 of the EC50, conventionally taken in molar units. The low end stands for a high EC50, the high end for a low EC50. On to `COc1cccc(-c2nc(OC(C)C)c3ccccc3n2)c1`, for which the pEC50 by setting is: (measured here: retest run 2) < 3.30; (measured here: retest run 3) < 3.30; (measured here: retest run 4) < 3.30.

Take `Cc1ccc(Sc2ccc(NC(=O)c3ccc(F)cc3)cc2C#N)cc1`: the negative-log EC50 (pEC50) was < 3.30 (measured here: retest run 2), < 3.30 (measured here: retest run 3) and < 3.30 (measured here: retest run 4).

Consider `CC(C)Oc1nc(-c2ccc(Cl)cc2)nc2ccccc12`, for which the pEC50 was 4.33 (measured here: retest run 2), < 3.30 (measured here: retest run 3) and < 3.30 (measured here: retest run 4).

Turning to `COc1ccc(S(=O)(=O)c2ccc(NC(=O)c3ccccc3Cl)cc2C#N)cc1`, the negative logarithm of the EC50 (pEC50) was < 3.30 (measured here: retest run 2), < 3.30 (measured here: retest run 3) and < 3.30 (measured here: retest run 4).

On to `COc1nc(-c2ccccc2)nc2ccccc12`, for which the pEC50 was < 3.30 (measured here: retest run 2), < 3.30 (measured here: retest run 3) and < 3.30 (measured here: retest run 4).

Usually EC50 stands for the concentration giving half of the maximal effect. Higher therefore signals lower potency in that assay. With `COc1ccc(Sc2ccc(NC(=O)c3ccccc3Cl)cc2C#N)cc1`, the concentration giving a half-maximal response (EC50) was > 500 µM (inactive) and 36.7 µM. Besides, the pEC50 (measured here: retest run 2) was < 3.30. This compound gave a negative-log EC50 (pEC50) (measured here: retest run 3) of 4.34. In addition, the pEC50 (measured here: retest run 4) is < 3.30.

For `CCCOc1ccc(-c2nc(Oc3ccccc3)c3ccccc3n2)cc1`, the pEC50 by setting is: (measured here: retest run 2) < 3.30; (measured here: retest run 3) < 3.30; (measured here: retest run 4) < 3.30.

Turning to `COc1ccc(Sc2ccc(NC(=O)c3cccc(Cl)c3)cc2C#N)cc1`, the negative-log EC50 (pEC50) (measured here: retest run 2) was < 3.30.

Consider `CCCOc1ccc(-c2nc(Oc3ccc(OC)cc3)c3ccccc3n2)cc1`, for which the negative logarithm of the EC50 (pEC50) by setting is: (measured here: retest run 2) < 3.30; (measured here: retest run 3) < 3.30; (measured here: retest run 4) < 3.30.

With `N#Cc1cc(NC(=O)c2ccc(Cl)cc2)ccc1Sc1ccccc1`, the pEC50 runs as follows: (measured here: retest run 2) 4.15; (measured here: retest run 3) 4.16.

Turning to `COc1ccc(-c2nc(OC)c3ccccc3n2)cc1`, the pEC50 (measured here: retest run 2) was < 3.30 and the pEC50 (measured here: retest run 3) was < 3.30.

For `CCCOc1ccc(-c2nc(OC)c3ccccc3n2)cc1`, the negative logarithm of the EC50 (pEC50) by setting is: (measured here: retest run 2) < 3.30; (measured here: retest run 3) < 3.30; (measured here: retest run 4) < 3.30.
